The NIST ThermoML archive (doi:10.1021/je025566c)

Conditions: Liquid

CCOCCO [2-ethoxyethan-1-ol]
Conditions | vapor or sublimation pressure [kPa]
333.15 K | 5.3
343.15 K | 8.646
353.15 K | 13.62

CCCCOC=O [butyl methanoate]
Conditions | vapor or sublimation pressure [kPa]
313.16 K | 7.978
318.33 K | 10.19
323.32 K | 12.79
328.57 K | 16.08
333.14 K | 19.5
333.15 K | 19.5
343.14 K | 29.1
343.15 K | 29.1
353.14 K | 42.24
353.15 K | 42.24
358.67 K | 51.34

CC(O)c1ccccc1 (centres undefined) [1-phenylethanol]
Conditions | vapor or sublimation pressure [kPa]
353.15 K | 0.76
358.41 K | 1.033
362.36 K | 1.296
366.37 K | 1.613
371.46 K | 2.112
373.15 K | 2.301
377.83 K | 2.909
382.98 K | 3.728
387.28 K | 4.557
393.15 K | 5.934
393.34 K | 5.985
398.01 K | 7.325

Oc1ccccc1 [phenol]
Conditions | vapor or sublimation pressure [kPa]
353.15 K | 2.037
373.15 K | 5.541
393.15 K | 13.15
